The results in this text go back to PubChem BioAssay (NCI).

Assay in all cases: NCI anticancer screen, dose series, 48 h
Assay [1] relates to LOX IMVI melanoma.
The subject of assay [2] is HL-60(TB) leukemia.
For assay [3], the system named is SK-MEL-28 melanoma.
Assay [4] has as its system UACC-257 melanoma.
Assay [5] relates to OVCAR-3 ovarian.
The test system of assay [6] is NCI-H226 lung.
The subject of assay [7] is HCC-2998 colon.
The test system of assay [8] is MDA-N.
For assay [9], the system named is OVCAR-4 ovarian.
Assay [10] has as its system MDA-MB-231 breast.
Assay [11] relates to UACC-62 melanoma.
The test system of assay [12] is BT-549 breast.

Several values for one entry are separate records, joined by “and”; a condition that tells them apart may be missing. Equal entries are not always repeated.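 How tested: cells in 96-well plates exposed to compound for 48 hours at five concentrations. GI50: concentration for 50% inhibition of growth. TGI: total growth inhibition.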

In the case of `O=C1OC[C@@H]2Cc3c([nH]c4ccccc34)[C@@H](c3ccc(O)cc3)N12`, the TGI was 46.3 µM in [1]; > 81.7 µM in assay [2]; > 100 µM in assay [3]; 72.2 µM in assay [4]; 43.8 µM in assay [5]; 80.1 µM in assay [6]. In addition, the TGI in assay [7] was > 96.7 µM; in [8], > 100 µM; in [9], > 86.4 µM; in [10], > 83.4 µM; in [11] it was 69.8 µM.
Consider `O=C(CCc1ccc(O)cc1)c1c(O)cc(O)cc1OC1OC(CO)C(O)C(O)C1O` (stereo unspecified), for which the TGI in [1], in [3], in assay [4], in assay [5], in [7] and in [8] was > 100 µM in each case. Further, the TGI in [9] and in assay [11] was > 100 µM each time.
In the case of `c1ccc(N=c2snc(-c3ccccc3)s2)cc1`, the TGI in assay [2], in assay [3], in [4], in [6], in [7] and in assay [9] was > 100 µM throughout. Also, the TGI in assay [11] was > 100 µM.
As to `CC(=O)CC(=O)c1cc2c(=O)oc(C)cc2oc1=O`, the TGI in [2], in assay [3], in assay [4], in [5], in [6] and in assay [7] was > 37.5 µM each time. Besides, the TGI in assay [8], in assay [12], in assay [9] and in assay [11] was > 37.5 µM each time.
`Cc1oc2nc(N(C)C)n3nnnc3c2c1C`: the TGI in [1] was > 100 µM; in assay [2], 63.6 µM; in [3], > 100 µM; in [4] it was > 100 µM; in assay [6] it was > 100 µM; in assay [7], > 100 µM. The TGI in [12], in assay [9], in assay [10] and in assay [11] was > 100 µM in each case.
Consider `C(=Nc1ccc(-c2nc3ccccc3s2)cc1)c1ccco1`, for which the TGI in assay [1], in [3], in assay [4], in assay [5], in [6] and in assay [7] was > 100 µM each time. The TGI in [8], in assay [12], in assay [9] and in assay [11] was > 100 µM throughout.
For the molecule `O=C1C(Cl)N(c2ccccc2)C1c1c[nH]c2ccccc12` (stereo unspecified), the TGI in [2], in assay [3], in assay [4], in [5], in assay [9] and in [11] was > 100 µM throughout.
Consider `CCn1c(=O)c2c3cc(O)ccc3oc2c2ccc(O)cc21`, for which the TGI was > 100 µM in assay [3]; > 100 µM in assay [4]; > 100 µM in assay [5]; > 100 µM in assay [6]; 50.9 µM in assay [7]; > 100 µM in assay [8]. Moreover, the TGI in assay [12] was 76.7 µM; in [9], > 100 µM; in assay [10], > 100 µM; in assay [11] it was > 100 µM.
As to `COc1ccc(NC2Oc3cc4c(cc3C(c3cc(OC)c(OC)c(OC)c3)C2C)OCO4)cc1` (stereo unspecified), the TGI is > 100 µM in [1]; 2 µM in assay [2]; > 100 µM in [3]; > 78.5 µM in assay [4]; > 100 µM in [5]; 5.58 µM in assay [6]. Moreover, the TGI was > 87.9 µM in [12], > 100 µM in [9], > 57.4 µM in [10] and > 100 µM in assay [11].
For `CN1CN(c2ccccc2)C2(CCN(CCCC3(c4cccs4)OCCO3)CC2)C1=O`, the TGI in [1], in assay [2], in assay [3], in assay [4], in [5] and in [6] was > 100 µM throughout. Besides, the TGI in assay [7], in assay [8], in [9], in assay [10] and in assay [11] was > 100 µM each time.
Take `CN(C)c1ccc(/C(Br)=C2\OC(=O)c3ccccc32)cc1`: the TGI in assay [1], in assay [2], in assay [3], in [4], in assay [6] and in assay [7] was > 100 µM each time. Moreover, the TGI in assay [8], in assay [9], in assay [10] and in assay [11] was > 100 µM each time.
For the molecule `O=C(O)Cc1ccc2nc(COC(=O)c3ccccc3)sc2c1`, the TGI in [1], in assay [3], in assay [4], in [5], in [7] and in assay [8] was > 100 µM throughout. Besides, the TGI in [12], in [9], in [10] and in assay [11] was > 100 µM each time.
On to `COc1cc([C@@H]2c3cc4c(cc3C[C@H]3COC(=O)[C@@H]32)OCO4)cc(OC)c1OC`, for which the GI50 was 0.00281 µM and 0.005 µM in assay [1]; 0.00202 µM in assay [2]; 0.00645 µM in [3]; 0.00424 µM and 0.00911 µM in assay [5]; 0.00524 µM in assay [6]; 0.00446 µM in assay [7]. Besides, the GI50 was 21.8 µM in [9] and 0.0028 µM in assay [11]. Besides, the TGI in [1] is > 50 µM; in [2], 0.00526 µM and 0.0126 µM; in [3], > 50 µM; in [4], > 5 µM; in assay [5] it was 0.0745 µM; in assay [6], 0.891 µM. For the same molecule, the TGI in assay [7] was 1.01 µM; in [8], 0.00582 µM; in [9] it was > 50 µM; in [11], > 50 µM.
Take `OCc1ccccc1C1CSCSC1`: the TGI in assay [1], in assay [2], in [3], in assay [4], in [5] and in [6] was > 100 µM each time. Moreover, the TGI in [9] and in assay [11] was > 100 µM throughout.
With `CCOC(=O)C(=O)N1C(C)=C(C(=O)OCC)CC(C(=O)OCC)=C1C`, the TGI in assay [1], in [2], in assay [3], in [4], in assay [5] and in [7] was > 100 µM throughout. Besides, the TGI in assay [8], in assay [9], in [10] and in assay [11] was > 100 µM throughout.
`CC(C)CCNC(=O)c1ccc(CNC(=O)/C=C/c2ccc(OCc3ccccc3)cc2)cc1`: the TGI in [1], in assay [3], in assay [4], in [5], in assay [6] and in assay [7] was > 100 µM each time. Also, the TGI in [8], in assay [9], in assay [10] and in assay [11] was > 100 µM throughout.
For `O=C(/C=C/c1cccs1)c1ccc(Cl)cc1`, the TGI in assay [2] is 70.5 µM; in assay [3], > 100 µM; in assay [4], > 100 µM; in assay [6] it was > 100 µM; in assay [7], > 100 µM; in assay [8], > 100 µM. For the same molecule, the TGI in [10] and in assay [11] was > 100 µM throughout.
As to `CC1=CC(=O)N(n2c(C)n[nH]c2=O)C1=O`, the TGI in assay [1], in assay [4], in assay [5], in assay [6], in assay [7] and in [8] was > 100 µM in each case. Moreover, the TGI in assay [12], in assay [9], in assay [10] and in assay [11] was > 100 µM each time.
In the case of `COc1cccc(C2c3cc4c(cc3OC(N3CCCC3)C2C)OCO4)c1OC` (stereo unspecified), the TGI in assay [1] came to 4.07 µM; in assay [5], 6.7 µM; in assay [8] it was 19.6 µM; in [11] it was 34.5 µM.
As to `CC(=O)Nc1ccc(Cl)c(Cl)c1`, the TGI in assay [1], in assay [3], in [4], in assay [5], in [6] and in assay [7] was > 100 µM each time. Also, in [11], the TGI was > 100 µM.
In the case of `Cc1cc2cccc(Cl)c2nc1C(=O)c1ccccc1`, the TGI in assay [1] is > 100 µM; in assay [3], > 100 µM; in assay [4], 66.9 µM; in [5] it was > 100 µM; in assay [6], > 100 µM; in assay [7], > 100 µM. Besides, the TGI in assay [9] and in [11] was > 100 µM in each case.
Take `Cc1nc2ccc([N+](=O)[O-])cc2c(=O)n1C(=S)Nc1cccc(Cl)c1`: the TGI is 35.3 µM in [1]; 50.6 µM in [2]; 40.6 µM in [3]; 41.2 µM in assay [4]; 58.1 µM in [5]; 44 µM in assay [6]. Moreover, the TGI in [7] was 26 µM; in [8], 39.4 µM; in [9] it was > 100 µM; in assay [10] it was 37.1 µM; in assay [11], 29.1 µM.
In the case of `C=CCCCC12CCCc3cccc(c31)NC2=O` (stereo unspecified), the TGI in assay [1] was 62.3 µM; in assay [2] it was 48.7 µM; in assay [4], 50.4 µM; in [5] it was 39.1 µM; in assay [6], 40.3 µM; in assay [7], 30.8 µM. The TGI in assay [9] turned out to be 39.8 µM; in [11] it was 31.3 µM.
On to `CCOc1ccc(N=C/C=C(\Cl)c2ccc3ccccc3c2)cc1`, for which the TGI in assay [1] was found to be 15.3 µM; in [2], 33.8 µM; in [3], 31.4 µM; in assay [4], 30.8 µM; in assay [5], 31.5 µM; in assay [6], 53.7 µM. In addition, the TGI in assay [12] was 40.4 µM; in [9], 26.3 µM; in [10], 30.9 µM; in assay [11], 31 µM.
On to `COc1cc2c(cc1OC)C(=O)/C(=C/c1cc(C)c(O)c(C)c1)C2`, for which the TGI in assay [1] is > 47.3 µM; in assay [2] it was > 100 µM; in [3] it was > 100 µM; in assay [4], > 100 µM; in assay [5] it was > 100 µM; in assay [6] it was > 59.7 µM. Further, the TGI in [7], in [12], in [9], in assay [10] and in [11] was > 100 µM in each case.
Take `COc1ccc(CNc2nc3ccc(C(F)(F)F)cc3nc2-c2ccccc2)cc1OC`: the TGI in assay [1], in assay [2], in assay [3], in [4], in assay [5] and in assay [6] was > 100 µM in each case. Besides, the TGI in assay [7] and in assay [11] was > 100 µM each time.
Consider `COC1C=CC23c4cc5c(cc4C(O)OC2CN(C)C3C1)OCO5` (stereo unspecified), for which the TGI in assay [1] is 6.85 µM; in assay [2] it was 3.17 µM; in assay [4] it was 7.3 µM; in assay [5], 5.8 µM; in [6], 5.36 µM; in [7], 5.71 µM. Besides, the TGI in [9] came out at 9.77 µM; in assay [11] it was 58.8 µM.
As for `O=c1nc2c(c(-c3cccc(Cl)c3)[nH]1)COC/C2=C\c1cccc(Cl)c1`, the TGI in assay [1], in assay [4], in assay [5], in assay [6], in [7] and in assay [8] was > 100 µM in each case. Besides, the TGI in [12], in [9], in [10] and in assay [11] was > 100 µM throughout.
For the molecule `COC(=O)C1CC(C=[N+](C)C)=C(SC)N1` (stereo unspecified), the TGI in assay [3], in assay [4], in [5], in assay [7], in assay [8] and in assay [12] was > 100 µM in each case. For the same molecule, the TGI in assay [9], in [10] and in assay [11] was > 100 µM each time.
